This is an account of results in US5571831A, “Imidazole derivative, and pharmaceutical composition” (Kureha Chemical Industry Co., Ltd., priority 1992, dated 1996).

What all share (test): Minimum inhibitory concentration (agar medium)
Holding throughout (type): cell-based

Experiment [1] concerns Candida albicans IFO 1060. To be noted: IFO1060, 72 h; Candida albicans IFO 1060, 27° C., 3 days, Sabouraud dextrose agar. Here is the method: (§1) The minimum inhibitory concentrations (MIC) in vitro of the compounds 1 to 3 of the present invention against microorganisms belonging to the genera Candida and Aspergillus were determined. (1) The strains of the microorganisms used were as follows. The inoculation solutions were prepared at a concentration of 1×10^6 cells/ml. 1) Candida albicans IFO 1060 (2) As the medium, a Sabouraud dextrose agar medium (Difco: dextrose 2%, agar 1.8%, not adjusted in pH) was used. The samples of the compounds to be tested were used after dissolved in dimethyl sulfoxide. The concentrations of the samples were from […]. The agar media containing the different concentrations of the compounds to be tested were inoculated with the microorganisms, using a microplanter (Sakuma Seisakusho). The microorganisms belonging to the genera Candida were cultured at 27° C. for 3 days, and the microorganisms belonging to the genus Aspergillus at 27° C. for 5 days.

Experiment [2] has as its system Candida albicans IFO 1270. Particulars: IFO1270, 72 h; Candida albicans IFO 1270, 27° C., 3 days, Sabouraud dextrose agar. How it is done: as §1, with “cells/ml. 2)” for “cells/ml. 1)”, “IFO 1270” for “IFO 1060”
Experiment [3] deals with Candida albicans ATCC 762. Particulars: ATCC762, 72 h; Candida albicans ATCC 762, 27° C., 3 days, Sabouraud dextrose agar. Here is the method: as §1, with “cells/ml. 3)” for “cells/ml. 1)”, “albicans ATCC 762” for “albicans IFO 1060”
The test system of experiment [4] is Candida tropicaris IFO 1400. Particulars: IFO1400, 72 h; Candida tropicaris IFO 1400, 27° C., 3 days, Sabouraud dextrose agar. Here is the method: as §1, with “cells/ml. 4)” for “cells/ml. 1)”, “Candida tropicaris” for “Candida albicans”, “IFO 1400” for “IFO 1060”
A further experiment has as its system Candida krusei IFO 1395. Particulars: Pichia kudriavzevii, IFO1395, 72 h; Candida krusei IFO 1395, 27° C., 3 days, Sabouraud dextrose agar. How it is done: as §1, with “cells/ml. 5)” for “cells/ml. 1)”, “Candida krusei” for “Candida albicans”, “IFO 1395” for “IFO 1060”
For experiment [5], the system named is Candida parapsilosis IFO 1396. To be noted: Lodderomyces parapsilosis, IFO1396, 72 h; Candida parapsilosis IFO 1396, 27° C., 3 days, Sabouraud dextrose agar. Here is the method:
as §1, with “cells/ml. 6)” for “cells/ml. 1)”, “Candida parapsilosis” for “Candida albicans”, “IFO 1396” for “IFO 1060”

In experiment [6] the test system is Aspergillus fumigatus IFO 5840. To be noted: IFO5840, 120 h; Aspergillus fumigatus IFO 5840, 27° C., 5 days, Sabouraud dextrose agar. Here is the method: as §1, with “7) Aspergillus fumigatus” for “1) Candida albicans”, “5840” for “1060”
For experiment [7], the system named is Aspergillus fumigatus IFO 9733. To be noted: IFO9733, 120 h; Aspergillus fumigatus IFO 9733, 27° C., 5 days, Sabouraud dextrose agar. How it is done: as §1, with “8) Aspergillus fumigatus” for “1) Candida albicans”, “9733” for “1060”

Converted amounts (≈) assume the structure as drawn.

Turning to `CC1(C)CCC(c2ccc(F)cc2)CC1(O)Cn1ccnc1` (racemic) [Compound 1, 2,2-dimethyl-5-(4-fluorophenyl)-1-(1H-imidazol-1-ylmethyl)-cyclohexane-1-ol], the minimal inhibitory concentration (MIC) (in experiment [1]; in experiment [2]; in experiment [3]; in experiment [4]; against Candida krusei IFO 1395; in experiment [5]) was 50 µg/mL (≈ 165 µM) each time. The minimum inhibitory concentration (MIC) in experiment [6] and in experiment [7] was 50 µg/mL (≈ 165 µM) in each case.
Regarding `CC1(C)CCC(c2ccc(Cl)cc2)CC1(O)Cn1ccnc1` (racemic) [Compound 2, 2,2-dimethyl-5-(4-chlorophenyl)-1-(1H-imidazol-1-ylmethyl)-cyclohexane-1-ol], the MIC (in general, the smallest concentration in the dilution series that meets the test's criterion for growth inhibition) in experiment [1] is 50 µg/mL (≈ 157 µM); in experiment [2], 25 µg/mL (≈ 78.4 µM); in experiment [3], 25 µg/mL (≈ 78.4 µM); in experiment [4] it was 100 µg/mL (≈ 314 µM); in the experiment with Candida krusei IFO 1395 it was > 100 µg/mL; in experiment [5], > 100 µg/mL. Besides, the MIC in experiment [6] and in experiment [7] was 100 µg/mL (≈ 314 µM) in each case.
With `CC1(C)CC[C@@H](c2ccc(O)cc2)C[C@@]1(O)Cn1ccnc1` (relative stereo) [Compound 3, 2,2-dimethyl-5-(4-hydroxyphenyl)-1-(1H-imidazoly-1-yl-methyl)-cyclohexane-1-ol], the MIC in experiment [1] amounted to 50 µg/mL (≈ 166 µM); in experiment [2] it was 100 µg/mL (≈ 333 µM); in experiment [3], 50 µg/mL (≈ 166 µM); in experiment [4], 50 µg/mL (≈ 166 µM); in the experiment on Candida krusei IFO 1395, 200 µg/mL (≈ 666 µM); in experiment [5], 200 µg/mL (≈ 666 µM). Moreover, the MIC in experiment [6] and in experiment [7] was 200 µg/mL (≈ 666 µM) throughout.
As for `OC1(Cn2ccnc2)CCCC(c2ccc(F)cc2)C1` (centres unmarked) [Compound C, 3-(4-fluorophenyl)-1-(1H-imidazol-1-ylmethyl)-cyclohexane-1-ol, reference compound], the MIC in experiment [1] was 200 µg/mL (≈ 729 µM); in experiment [2], 200 µg/mL (≈ 729 µM); in experiment [3] it was 200 µg/mL (≈ 729 µM); in experiment [4] it was > 400 µg/mL; in the experiment on Candida krusei IFO 1395, > 400 µg/mL; in experiment [5] it was > 400 µg/mL. Besides, the MIC in experiment [6] and in experiment [7] was > 400 µg/mL throughout.
